Measured values: patent publication US6482805B2 (Parker Hughes Institute, priority 1998, dated 2002)
Where two headings read alike, the source gives them in different places.

Experiments:
Format in all cases: cell-based
human sperm = test: cells
Procedure: All donor specimens were obtained after informed consent and in compliance with the guidelines of the Hughes Institute Institutional Review Board. To evaluate the spermicidal effects of ZDV derivatives, highly motile fraction of pooled donor sperm (n 8) were prepared from liquefied normospermic semen by discontinuous (90-45%) gradient centrifugation using Enhance-S-Plus (Conception technologies, San Diego, Calif.) cell isolation medium as previously described. [D'Cruz O J, et al., Biol Reprod 1999; 60:1419-1428; D'Cruz O J, et al., Biol Reprod 1995; 53:118-1130; and D'Cruz O J, et al., Biol Reprod 1998; 58:1515-1526]. The resulting pellet was washed twice and resuspended in 1-ml of Biggers, Whitten, and Whittingam's medium (BWW) (Irvine Scientific, Santa Ana, Calif.) containing 3% BSA (fraction V; Sigma Chemical Co., St. Louis, Mo.). One-ml aliquots of the sperm suspension were centrifuged (500× g, 5 min) and incubated at 45° for 90 min at 37° C. in 5% CO2 atmosphere. The supernatant containing primarily motile sperm was aspirated carefully, washed once in BWW medium containing 25 mM HEPES and 0.3% BSA and resuspended in the same medium. Pooled motile sperm (=10×10^6/ml) prepared from 3-5 donors were suspended in 1-ml of BWW-0.3% BSA in the presence and absence of serial 2-fold dilutions of test substance (1.9 μm to 500 μM) in 0.5% dimethyl sulfoxide (DMSO). The stock solutions of synthetic compounds were prepared in DMSO (100 mM) and diluted in medium to yield the desired concentrations. A corresponding volume of DMSO (0.5%) was added to control tubes. After 3 hour incubation at 37° C., the percentage of motile sperm was evaluated by computer-assisted sperm motion analysis (CASA) [D'Cruz O J, et al., Biol Reprod 1998; 58:1515-1526; D'Cruz O J, et al., Mol Hum Reprod 1998; 4:683-693; D'Cruz O J, et al., Biol Reprod 1999; 60:435-444]. The percentage motilities were compared with those of sham-treated control suspensions of motile sperm. The spermicidal activity of test compounds was expressed as the mean EC50 values (the final concentration of the compound in the medium that decreases the proportion of motile sperm by 50%) calculated from three independent experiments.
For CASA, 4 μl of each sperm suspension were loaded into a 20-μm Microcell chamber at 37° C. Eight to ten fields per chamber were scanned for analysis using a Hamilton Thome Integrated Visual Optical System (IVOS), version 10 instrument (Hamilton Thome Research Inc., Danvers, Mass.) [see, D'Cruz O J, et al. Biol Reprod 1998; 58:1515-1526; and D'Cruz O J, et al., Mol Hum Reprod 1998; 4:683-693; and D'Cruz O J, et al., Biol Reprod 1999; 60:435-444]. Each field was recorded for 30 sec. The computer calibrations were set at 30 frames at a frame rate of 30/s. Other settings were as follows: minimum contrast 8; minimum size 6; low-size gate, 1.0; high-size gate, 2.9; low-intensity gate, 0.6; high-intensity gate, 1.4; phase-contrast illumination; low path velocity at 10 μm/s, and threshold straightness at 80%; magnification factor, 1.95.
The sperm kinematic parameters that were determined included numbers of motile (MOT) and progressively (PRG) motile sperm; curvilinear velocity (VCL; a measure of the total distance traveled by a given sperm during the acquisition divided by the time elapsed); average path velocity (VAP; the spatially averaged path that eliminates the wobble of the sperm head), straight line velocity (VSL; the straight-line distance from beginning to end of track divided by time taken), beat cross frequency (BCF, frequency of sperm head crossing sperm average path), the amplitude of lateral head displacement (ALH; the mean width of sperm head oscillation), straightness (STR=VSL/VAP×100); linearity (LIN=VSL/VCL×100; departure of sperm track from a straight line). Data from each individual cell track were recorded and analyzed. At least 200 motile sperm were analyzed for each aliquot sampled.

[1] = system: normal human endocervical epithelial cells; test: cells; settings: 24 h, read-out: Endocervical cells IC50
Procedure: The potential cytotoxicity of aryl phosphate derivatives of bromo-methoxy ZDV in comparison to N-9, against normal human ectocervical and endocervical epithelial cells (Clonetics Corporation, San Diego, Calif.), was measured using MTT (3-[4,5-dimethylthiazol-2-yl]-2,5-diphenyl tetrazolium bromide) cell viability assays (Boehringer Mannheim Corp., Indianapolis, Ind.) [see, D'Cruz O J, et al., Mol Hum Reprod 1999; 5:421-432; D'Cruz O J, et al., Contraception 1999; 59 (in press); and Uckun F M, et al., Antimicrob Agents Chemther 1998; 42:383-388]. Briefly, exponentially growing ectocervical and endocervical epithelial cells were seeded into 96-well plate at a density of 2×10^5 cells/well and incubated for 24 h at 37° C. prior to drug exposure. On the day of treatment, culture medium was carefully aspirated from the wells and replaced with fresh medium containing drug concentrations ranging from 3.9 μM to 1000 μm. Triplicate wells were used for each treatment. The cells were incubated with the various compounds for 24 hours at 37° C. in a humidified 5% CO2 atmosphere. To each well, 10 μl of MTT (0.5 mg/ml final concentration) was added and the plates were incubated at 37° C. for 4 hours to allow MTT to form formazan crystals by reacting with metabolically active cells. The formazan crystals were solubilized overnight at 37° C. in a solution containing 10% SDS in 0.01 M HCl. The absorbance of each well was measured in a microtiter reader at 540 nm and a reference wavelength of 690 nm. To translate the OD540 values into the number of live cells in each well, the OD540 values were compared to those of standard OD540 versus cell number curves generated for each cell line. The percent cell survival was calculated using the formula: % survival=live cell number[test]/live cell number[control]×100. The results were expressed as IC50 values. The IC50 was defined as the concentration required for 50% reduction in cell survival. Two separate experiments were performed in triplicate to assess the potential cytotoxicity of spermicidal WHI-07 analogues against ectocervical and endocervical epithelial cells.

HIV-1 = test: Anti-HIV-1 activity, p24 antigen assay in infected PBMC (Example 1); settings: for IC50: read-out: IC50, HIV-1 replication (p24 antigen)
Procedure: Subsequently, cells were cultured in 96-well microtiter plates (100 μl/well; 2×10^6/ml, triplicate wells) in the presence and absence of various concentrations (0.00 μM to 100 μM) of drugs for 7 days. Aliquots of culture supernatants were removed from the wells on the 7th day after infection for p24 antigen enzyme immunoassay as an indication of viral replication. Erice et al. Antimicrob. Agents and Chemother. […] Agents and Chemother. […] Percent inhibition of virus replication was calculated by comparing the p24 antigen values from the test drug-treated infected cells with p24 antigen values from untreated infected cells. […] Cell viability was quantified by a colorimetric […] assay. F. M. Uckun et al., Antimicrob. Agents and Chemother.

[2] = 3 hour incubation, mean ± SD of three experiments, read-out: EC50 (sperm motility, CASA) (converted)
[3] = Table 4, mean of three experiments, read-out: Sperm EC50
[4] = MTT, mean ± SD of two experiments

Compound | EC50 (human sperm; [2]) [µM] | EC50 (human sperm; [3]) [µM] | IC50 [1, 4] [µM] | further results
5-Bromo-6-methoxy-5,6-dihydro-3′-azidothymidine 5′-[Phenyl methoxyalaninyl phosphate] [WHI-04] | 35 ± 5 | 35 | > 1000 | –
5-Bromo-6-methoxy-5,6-dihydro-3′-azidothymidine-5′-[(p-Fluorophenyl methoxyalaninyl phosphate] [WHI-06] | 15 | 15 | 939 ± 157 | –
5-bromo-6-methoxy-5,6-dihydro-3 ′-azidothymidine-5 ′-(p-methoxyphenyl) methoxyalaninyl phosphate [WHI-05] | 24 | 24 | 388 ± 38 | IC50 (HIV-1; human peripheral blood mononuclear cells, 7 days): 0.05 µM
CCCCCCCCCc1ccc(OCCOCCOCCOCCOCCOCCOCCOCCOCCO)cc1 [Compound N-9, nonoxynol-9, reference compound] | – | – | – | IC50 (HIV-1; Human immunodeficiency virus 1, PBMC, 168 h, human peripheral blood mononuclear cells, 7 days): 2.19 µM; EC50 (human sperm; Homo sapiens, Sperm, Table 4, mean of three experiments, read-out: Sperm EC50): 81 µM; IC50 ([1]; Homo sapiens, Epithelial cell, MTT, mean ± SD of two experiments): 16 ± 5 µM
COC(=O)C(C)NP(=O)(OCC1OC(N2C(=O)NC(=O)C(C)(Br)C2OC)CC1N=[N+]=[N-])Oc1ccc(Br)cc1 (stereo not drawn) [WHI-07, 5-Bromo-6-methoxy-5,6-dihydro-3′-azidothymidine-5′-(p-Bromophenyl Methoxyalaninyl Phosphate)] | – | – | – | IC50 (HIV-1; Human immunodeficiency virus 1, PBMC, 168 h): 0.005 µM; anti-HIV potency relative to N-9 (HIV-1; ratio of IC50 values): 439 fold; EC50 (human sperm; Homo sapiens, Sperm, 3 h, read-out: EC50 (sperm motility, CASA)): 5 µM; EC50 (human sperm; Homo sapiens, Sperm, read-out: Sperm EC50): 5 µM; IC50 ([1]; Homo sapiens, Epithelial cell): 312 ± 38 µM
